Experimental data taken from PMC4438668, “Quantitative High-Throughput Identification of Drugs as Modulators of Human Constitutive Androstane Receptor” (Scientific Reports, 2015).
Entries after “also recorded” stand apart in the source; their conditions may differ.

Assays:
human CAR (hCAR) [1] = target: T1, human CAR (hCAR) (Homo sapiens, UniProt Q14994); experiment: hCAR luciferase reporter qHTS, antagonist mode (HepG2-CYP2B6-hCAR cells, CITCO co-treatment); conditions: for IC50 / Follow-up Confirmation Efficacy / Primary Screen Efficacy: antagonist mode; for Follow-up Confirmation Efficacy / Primary Screen Efficacy: relative to PK11195 (100%); for Identified as hCAR antagonist/deactivator in the qHTS: primary qHTS of 2816 NPC compounds;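 as to all read-outs here: stable HepG2 line carrying hCAR plus a CYP2B6 promoter (PBREM/XREM) luciferase reporter, 1536-well format, 24 h compound exposure at 37 °C, then luminescence read with ONE-Glo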
T1 sequence (Q14994 1-348 isoform Q14994-2): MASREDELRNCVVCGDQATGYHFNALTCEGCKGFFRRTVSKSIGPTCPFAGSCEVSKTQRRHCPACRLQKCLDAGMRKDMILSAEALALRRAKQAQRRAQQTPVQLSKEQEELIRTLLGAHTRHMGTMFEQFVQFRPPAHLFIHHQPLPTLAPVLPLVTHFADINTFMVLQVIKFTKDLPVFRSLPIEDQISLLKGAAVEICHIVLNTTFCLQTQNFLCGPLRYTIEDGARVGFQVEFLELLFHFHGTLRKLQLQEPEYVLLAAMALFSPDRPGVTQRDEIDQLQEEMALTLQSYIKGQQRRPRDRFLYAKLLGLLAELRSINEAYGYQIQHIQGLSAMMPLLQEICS
Procedure: The pEF6/V5-hCAR expression plasmid and the pGL4.17[luc2/Neo]-CYP2B6-2.2kb construct containing both the PBREM and XREM[40], were co-transfected in HepG2 cells using lipofectamine 2000 reagents (Life Technologies) following the manufacturer’s instruction. Dulbecco’s Modified Eagle Medium (DMEM) containing 10% FBS, 100 U/ml penicillin, 100 μg/ml streptomycin, G418 (0.6-1 mg/ml) and blasticidin (10 μg/ml) were used for the selection of colonies containing a mixed population of drug resistant cells. Subsequently, these cells were transferred to collagen-coated 48-well plates and continually cultured in the same media. Single colony containing both plasmids was selected and functionally verified.
The generated stable cell line, namely HepG2-CYP2B6-hCAR, was used to identify hCAR modulators in a qHTS platform. Assays were run in both agonist and antagonist modes. In brief, HepG2-CYP2B6-hCAR cells were dispensed at 2,500 cells/well in 1,536-well plates (Greiner Bio-One North America, Monroe, NC) using a Multidrop Combi (Thermo Fisher Scientific Inc., Waltham, MA). […] The assays were incubated at 37 °C for 24 h followed by the addition of 4 μl of the ONE-Glo luciferase reagent (Promega, Madision, WI). The assay plates were incubated at room temperature for 20 min and luminescence intensity was quantified using a ViewLux plate reader (PerkinElmer, Shelton, CT).
(§1) Concentration-response titration points for each compound were then fitted to the Hill equation, yielding half-maximal inhibition (IC50) or activation (EC50) and maximal response (efficacy) values. Compounds from the primary qHTS screen were classified into four major curve classes according to quality of curve fit, potency and efficacy. Class 1.1, 1.2, 2.1, and 2.2 curves were high-quality and thus high-confidence concentration-response curves (CRCs). […] All other curve classes (including those curves with single point activity) were deemed inconclusive. […] Follow-up studies were performed using a new aliquot of samples to confirm sample integrity and assay reproducibility.
All of these compounds were retested in both HepG2-CYP2B6-hCAR and cell viability assays.

hPXR = target: T2, hPXR (Homo sapiens, UniProt O75469); experiment: Transient hPXR luciferase assay in HepG2 cells (CYP2B6-2.2 kb reporter); format: cell-based; conditions: HepG2, 24 h, in the presence or absence of rifampicin (10 μM)
T2 construct: expressed in transfected cells; host or cells: HepG2 (transient transfection)
T2 sequence (O75469 1-434): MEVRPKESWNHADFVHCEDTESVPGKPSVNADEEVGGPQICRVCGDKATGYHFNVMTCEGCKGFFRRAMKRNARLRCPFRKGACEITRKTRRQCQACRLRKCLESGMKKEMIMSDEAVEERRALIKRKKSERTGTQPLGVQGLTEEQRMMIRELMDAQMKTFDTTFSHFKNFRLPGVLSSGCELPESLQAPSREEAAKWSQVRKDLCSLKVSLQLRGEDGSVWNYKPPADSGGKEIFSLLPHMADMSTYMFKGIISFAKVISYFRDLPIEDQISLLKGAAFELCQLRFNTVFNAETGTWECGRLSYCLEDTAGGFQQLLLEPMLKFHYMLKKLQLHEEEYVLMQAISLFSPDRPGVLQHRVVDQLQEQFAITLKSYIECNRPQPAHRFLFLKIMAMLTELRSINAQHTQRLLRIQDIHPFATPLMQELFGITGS
Procedure: HepG2 cells cultured in a 24-well plate were co-transfected with the CYP2B6-2.2 kb reporter and hPXR expression vectors using a Lipofectamine® 2000 Transfection Kit (Life Technologies) following the manufacturer’s instruction. […] Cell lysates were assayed for firefly luciferase activities normalized against the activities of co-transfected Renilla luciferase using a Dual-Luciferase Kit (Promega). Data were represented as mean±SD of three individual transfections.

HepG2-CYP2B6-hCAR cells = experiment: Cell viability assay (CellTiter-Glo ATP quantitation); format: cell-based, human; set-up: key to Cytotoxicity (activity call): Inactive: considered inactive if efficacy is less than 30%; conditions: 24 h
Procedure: The potential cytotoxicity of the NPC compounds in HepG2-CYP2B6-hCAR cells was measured using a luciferase-coupled ATP quantitation assay (CellTiter-Glo viability assay, Promega). The change of intracellular ATP content indicates the number of metabolically competent cells. The cells were seeded at 2,500 cells/5 μl in 1536-well plates and were exposed to each test compound at concentrations and treatment duration as previously mentioned. The assay plates were incubated for 24 h at 37 °C, followed by the addition of 4 μl/well of CellTiter-Glo reagent. After 30 min incubation at RT, the luminescence intensity of the plates was measured using a ViewLux plate reader.

CYP3A4 = CYP3A4 mRNA expression in HPH (real-time PCR); format: cell-based, human; conditions: HPH, 24 h, vs vehicle control (0.1% DMSO)
Procedure: (§2) HPH were isolated from human liver specimens by a modification of the two-step collagenase digestion method as described previously[43] or obtained from Bioreclamation In Vitro Technologies (Baltimore, MD). Fresh HPH were seeded at 1.5 × 10^6, 7.5 × 10^5 or 4.7 × 10^4 cells/well in 6-well, 12-well, or 96-well collagen coated plates, respectively. Hepatocytes were cultured for 36 h at 37 °C before treatment with specified compounds for another 24 or 72 h for detection of mRNA or protein expression in the 6-well and 12-well plates.
(§3) Total RNA was isolated from treated hepatocytes using the TRIzol® reagent and reverse transcribed using a High Capacity cDNA Archive Kit (Applied Biosystems, Foster City, CA) following the manufacturers’ instructions. CYP2B6 and CYP3A4 mRNA expression were normalized against that of GAPDH. Real-time PCR assays were performed in 96-well optical plates on an ABI Prism 7000 Sequence Detection System with SYBR Green PCR Master Mix. […] Induction values were calculated using the equation: Fold = 2ΔΔCt, where ΔCt represents the differences in cycle threshold numbers between CYP2B6 or CYP3A4 and GAPDH, and ΔΔCt represents the relative change in these differences between control and treatment groups.

human CAR (hCAR) [2] = target: T1, human CAR (hCAR); experiment: hCAR luciferase reporter qHTS, agonist mode (HepG2-CYP2B6-hCAR cells, PK11195 co-treatment); conditions: for EC50 / Follow-up Confirmation Efficacy / Primary Screen Efficacy: agonist mode; for Follow-up Confirmation Efficacy: relative to CITCO (100%); for Primary Screen Efficacy: relative to CITCO Emax (100%)
Procedure: The generated stable cell line, namely HepG2-CYP2B6-hCAR, was used to identify hCAR modulators in a qHTS platform. Assays were run in both agonist and antagonist modes. In brief, HepG2-CYP2B6-hCAR cells were dispensed at 2,500 cells/well in 1,536-well plates (Greiner Bio-One North America, Monroe, NC) using a Multidrop Combi (Thermo Fisher Scientific Inc., Waltham, MA). […] Each NPC compound was tested at 8 concentrations ranging from 0.6 nM to 38.3 μM. The assays were incubated at 37 °C for 24 h followed by the addition of 4 μl of the ONE-Glo luciferase reagent (Promega, Madision, WI). The assay plates were incubated at room temperature for 20 min and luminescence intensity was quantified using a ViewLux plate reader (PerkinElmer, Shelton, CT).
as §1
These compounds were prepared in 1536-well compound plates at 11-point 3-fold dilution titrations in DMSO, with final concentrations ranging from 0.6 nM to 38.3 μM. All of these compounds were retested in both HepG2-CYP2B6-hCAR and cell viability assays.

CYP2B6 = CYP2B6 mRNA expression in HPH (real-time PCR); conditions: HPH; for Effect on CYP2B6 mRNA expression: 24 h, vs vehicle control (0.1% DMSO)
Procedure: as §2, §3

EYFP-hCAR = target: T3, EYFP-hCAR (Homo sapiens, UniProt Q14994); experiment: Nuclear translocation of Ad/EYFP-hCAR in human primary hepatocytes; format: cell-based; conditions: HPH; listed as ACFB
T3 construct: expressed in transfected cells; host or cells: human primary hepatocytes infected with Ad/EYFP-hCAR
T3 sequence (Q14994 1-348 isoform Q14994-2): T1 sequence (Q14994 1-348 isoform Q14994-2)
Procedure: A recombinant adenovirus expressing enhanced yellow fluorescent protein-tagged hCAR (Ad/EYFP-hCAR) was generated as described previously. Hepatocytes cultured in 96-well collagen-coated plates in serum free Williams’ E medium were infected with Ad/EFYP-hCAR (1 μl/well) for 12 h before treatment with the vehicle control, DMSO (0.1%), PB (1 mM), and selected compounds for another 8 h. Subcellular localization of hCAR was visualized using a Nikon (Tokyo, Japan) C1-LU3 instrument based on an inverted Nikon Eclipse TE2000 microscope.

[3] = Follow-up Confirmation Potency (IC50), follow-up cherry-pick, 11-point titration
[4] = Primary Screen Potency (IC50), primary qHTS, 0.1 μM CITCO, 24 h
[5] = Follow-up Confirmation Potency (EC50), follow-up cherry-pick, 11-point titration
[6] = Primary Screen Potency (EC50), primary qHTS, 2.5 μM PK11195, 24 h

Structure (SMILES): Cc1c(O)cccc1C(=O)N[C@@H](CSc1ccccc1)[C@H](O)CN1C[C@H]2CCCC[C@H]2C[C@H]1C(=O)NC(C)(C)C [Nelfinavir]
- IC50 (human CAR (hCAR) [1]; [3]): 11 µM
- IC50 (human CAR (hCAR) [1]; [4]): 9.52 µM
- Follow-up Confirmation Efficacy (human CAR (hCAR) [1]; follow-up cherry-pick): -101%
- Primary Screen Efficacy (human CAR (hCAR) [1]; primary qHTS): -88%
- Effect on basal and RIF-induced PXR activity (hPXR): induced hPXR activation to an extent closer to that of RIF
- Cytotoxicity (activity call) (HepG2-CYP2B6-hCAR cells): Inactive
- Effect on CYP3A4 mRNA expression (CYP3A4): negligible effect

Structure (SMILES): COc1cc(Nc2c(C#N)cnc3cc(OCCCN4CCN(C)CC4)c(OC)cc23)c(Cl)cc1Cl [Bosutinib]
- Cytotoxicity (activity call) (HepG2-CYP2B6-hCAR cells): Inactive

Structure (SMILES): Nc1ccc(Cl)cc1C(=O)c1ccccc1F [2-Amino-5-chloro-2’-fluorobenzophenone]
- EC50 (human CAR (hCAR) [2]; [5]): 15.6 µM
- EC50 (human CAR (hCAR) [2]; [6]): 3.4 µM
- Follow-up Confirmation Efficacy (human CAR (hCAR) [2]; follow-up cherry-pick): 67%
- Primary Screen Efficacy (human CAR (hCAR) [2]; primary qHTS): 60%
- Induction of hCAR target genes (CYP2B6; target genes CYP2B6 and CYP3A4, listed as ACFB): negligible induction; also recorded: nor induced the expression of its target genes
- hCAR nuclear translocation (in words) (EYFP-hCAR): didn’t translocate hCAR; also recorded: neither translocated hCAR

Structure (SMILES): CC(COc1ccccc1)N(CCCl)Cc1ccccc1 (centres unmarked) [Phenoxybenzamine]
- EC50 (human CAR (hCAR) [2]; [5]): 12 µM
- EC50 (human CAR (hCAR) [2]; [6]): 9.5 µM
- Follow-up Confirmation Efficacy (human CAR (hCAR) [2]; follow-up cherry-pick): 49%
- Primary Screen Efficacy (human CAR (hCAR) [2]; primary qHTS): 57%

Structure (SMILES): Clc1ccc(Nc2nnc(Cc3ccncc3)c3ccccc23)cc1 [Vatalanib]
- EC50 (human CAR (hCAR) [2]; [5]): 12.6 µM
- EC50 (human CAR (hCAR) [2]; [6]): 10.7 µM
- Follow-up Confirmation Efficacy (human CAR (hCAR) [2]; follow-up cherry-pick): 97%
- Primary Screen Efficacy (human CAR (hCAR) [2]; primary qHTS): 68%
- Effect on CYP2B6 mRNA expression (CYP2B6): significantly induced
- Effect on CYP3A4 mRNA expression (CYP3A4): markedly enhanced

Structure (SMILES): Clc1ccccc1C(c1ccccc1)(c1ccccc1)n1ccnc1 [clotrimazole]
- Identified as hCAR antagonist/deactivator in the qHTS (human CAR (hCAR) [1]): recognized in the current study

Structure (SMILES): C[C@H]1O[C@@H](O[C@H]2[C@@H](O)C[C@H](O[C@H]3[C@@H](O)C[C@H](O[C@H]4CC[C@@]5(C)[C@H](CC[C@@H]6[C@@H]5CC[C@]5(C)[C@@H](C7=CC(=O)OC7)CC[C@]65O)C4)O[C@@H]3C)O[C@@H]2C)C[C@H](O)[C@@H]1O [Digitoxin]
- IC50 (human CAR (hCAR) [1]; [3]): 0.29 µM
- IC50 (human CAR (hCAR) [1]; [4]): 0.08 µM
- Follow-up Confirmation Efficacy (human CAR (hCAR) [1]; follow-up cherry-pick): -98%
- Primary Screen Efficacy (human CAR (hCAR) [1]; primary qHTS): -76%
- Cytotoxicity (activity call) (HepG2-CYP2B6-hCAR cells): Inactive

Structure (SMILES): O=c1[nH]c(=O)n([C@H]2C[C@H](O)[C@@H](CO)O2)cc1C(F)(F)F [Trifluridine]
- IC50 (human CAR (hCAR) [1]; [3]): 4.5 µM
- IC50 (human CAR (hCAR) [1]; [4]): 6.7 µM
- Follow-up Confirmation Efficacy (human CAR (hCAR) [1]; follow-up cherry-pick): -73%
- Effect on CYP2B6 mRNA expression (CYP2B6): moderately induced
- Effect on basal and RIF-induced PXR activity (hPXR): no effects on either basal or RIF-induced hPXR activation
- Cytotoxicity (activity call) (HepG2-CYP2B6-hCAR cells): Inactive

Structure (SMILES): COC(=O)Nc1nc2ccc(C(=O)c3cccs3)cc2[nH]1 [nocodazole]
- Identified as hCAR agonist in the qHTS (human CAR (hCAR) [2]; primary qHTS of 2816 NPC compounds): hCAR agonist from the current study

Structure (SMILES): COc1cc(N)c(Cl)cc1C(=O)NC1CCN(Cc2ccccc2)CC1 [Clebopride]
- EC50 (human CAR (hCAR) [2]; [5]): 9.4 µM
- EC50 (human CAR (hCAR) [2]; [6]): 7.6 µM
- Follow-up Confirmation Efficacy (human CAR (hCAR) [2]; follow-up cherry-pick): 80%
- Primary Screen Efficacy (human CAR (hCAR) [2]; primary qHTS): 52%
- Effect on CYP2B6 mRNA expression (CYP2B6): significantly induced; also recorded: potent induction exceeding that of CITCO
- Effect on CYP3A4 mRNA expression (CYP3A4): markedly enhanced

Structure (SMILES): O=C1OC(c2ccc(O)cc2)(c2ccc(O)cc2)c2ccccc21 [phenolphthalein]
- Identified as hCAR antagonist/deactivator in the qHTS (human CAR (hCAR) [1]): recognized in the current study
